Results reported in patent publication US11229205B2, “Herbicidally active pyridyl-/pyrimidyl-pyrazine derivatives” (Syngenta Participations AG, priority 2017, dated 2022).

What was measured:
Type in all cases: in vivo
[1] = system: Alopecurus myosuroides (ALOMY); assay: Pre-emergence herbicidal activity (B1); settings: Test 1b; pre-emergence application; rate 1000 g/ha; evaluated after 13 days; score 0-5
Protocol: (§1) Seeds of a variety of test species were sown in standard soil in pots: Triticum aestivium (TRZAW), Avena fatua (AVEFA), Alopecurus myosuroides (ALOMY), Echinochloa crus-galli (ECHCG), Lolium perenne (LOLPE), Zea Mays (ZEAMX), Abutilon theophrasti (ABUTH), Amaranthus retroflexus (AMARE) and Setaria faberi (SETFA). […] The test plants were then grown in a glasshouse under controlled conditions (at 24/16° C., day/night; 14 hours light; 65% humidity) and watered twice daily. After 13 days, the test was evaluated (5=total damage to plant; 0=no damage to plant).

Avena fatua (AVEFA) [2] = assay: Pre-emergence herbicidal activity (B1); settings: Test 1b; pre-emergence application; rate 1000 g/ha; evaluated after 13 days; score 0-5
Protocol: as §1

[3] = system: Echinochloa crus-galli (ECHCG); assay: Pre-emergence herbicidal activity (B1); settings: Test 1b; pre-emergence application; rate 1000 g/ha; evaluated after 13 days; score 0-5
Protocol: as §1

Lolium perenne (LOLPE) [4] = assay: Pre-emergence herbicidal activity (B1); settings: Test 1b; pre-emergence application; rate 1000 g/ha; evaluated after 13 days; score 0-5
Protocol: as §1

Setaria faberi (SETFA) [5] = assay: Pre-emergence herbicidal activity (B1); settings: Test 1b; pre-emergence application; rate 1000 g/ha; evaluated after 13 days; score 0-5
Protocol: as §1

[6] = system: Triticum aestivium (TRZAW); assay: Pre-emergence herbicidal activity (B1); settings: Test 1b; pre-emergence application; rate 1000 g/ha; evaluated after 13 days; score 0-5
Protocol: as §1

[7] = system: Alopecurus myosuroides (ALOMY); assay: Post-emergence herbicidal activity (B2); settings: Test B2b; post-emergence application; rate 1000 g/ha; evaluated after 13 days; score 0-5
Protocol: as §1

Avena fatua (AVEFA) [8] = assay: Post-emergence herbicidal activity (B2); settings: Test B2b; post-emergence application; rate 1000 g/ha; evaluated after 13 days; score 0-5
Protocol: as §1

[9] = system: Echinochloa crus-galli (ECHCG); assay: Post-emergence herbicidal activity (B2); settings: Test B2b; post-emergence application; rate 1000 g/ha; evaluated after 13 days; score 0-5
Protocol: as §1

Lolium perenne (LOLPE) [10] = assay: Post-emergence herbicidal activity (B2); settings: Test B2b; post-emergence application; rate 1000 g/ha; evaluated after 13 days; score 0-5
Protocol: as §1

Setaria faberi (SETFA) [11] = assay: Post-emergence herbicidal activity (B2); settings: Test B2b; post-emergence application; rate 1000 g/ha; evaluated after 13 days; score 0-5
Protocol: as §1

[12] = system: Triticum aestivium (TRZAW); assay: Post-emergence herbicidal activity (B2); settings: Test B2b; post-emergence application; rate 1000 g/ha; evaluated after 13 days; score 0-5
Protocol: as §1

Compound | damage to plant, ALOMY [1] | damage to plant, AVEFA (Avena fatua (AVEFA) [2]) | damage to plant, ECHCG [3] | damage to plant, LOLPE (Lolium perenne (LOLPE) [4]) | damage to plant, SETFA (Setaria faberi (SETFA) [5]) | damage to plant, TRAZW [6] | damage to plant, ALOMY [7] | damage to plant, AVEFA (Avena fatua (AVEFA) [8]) | damage to plant, ECHCG [9] | damage to plant, LOLPE (Lolium perenne (LOLPE) [10]) | damage to plant, SETFA (Setaria faberi (SETFA) [11]) | damage to plant, TRAZW [12]
CCOC(=O)c1nc(-c2cncnc2)cnc1N [Compound G2] | 0 | 0 | 0 | 0 | 2 | 0 | 1 | 1 | 1 | 1 | 3 | 0
Nc1ncc(-c2cncc(F)c2)nc1C(F)(F)F [Compound G3, 2-amino-3-trifluoromethyl-5-(5-fluoropyrid-3-yl) pyrazine] | 1 | 1 | 3 | 0 | 4 | 1 | 0 | 3 | 4 | 2 | 3 | 0
Cc1nc(-c2cncc(F)c2)cnc1N [Compound G4] | 0 | 1 | 1 | 0 | 1 | 0 | 0 | 1 | 2 | 0 | 3 | 0
COc1nc(-c2cncc(F)c2)cnc1N [Compound G5] | 0 | 0 | 1 | 0 | 1 | 0 | 1 | 1 | 2 | 0 | 3 | 0
Nc1ncc(-c2cncnc2)nc1C(F)(F)F [Compound G6] | 0 | 1 | 1 | 0 | 2 | 0 | 0 | 1 | 3 | 1 | 3 | 0
N#Cc1nc(-c2cncc(F)c2)cnc1N [Compound G7] | 0 | 0 | 1 | 0 | 1 | 0 | 0 | 1 | 3 | 0 | 2 | 0
Nc1ncc(-c2cncc(F)c2)nc1Br [Compound G8, 2-amino-3-bromo-5-(5-fluoropyrid-3-yl)pyrazine] | 0 | 0 | 0 | 0 | 0 | 0 | 0 | 0 | 2 | 0 | 1 | 0
Nc1ncc(-c2cncnc2)nc1OCc1ccccc1 [Compound G10] | 0 | 0 | 0 | 0 | 0 | 0 | 0 | 0 | 1 | 0 | 1 | 0
Nc1ncc(-c2cncc(F)c2)nc1OCc1ccccc1 [Compound G11] | 0 | 0 | 0 | 0 | 0 | 0 | 0 | 1 | 1 | 0 | 1 | 0
